Results reported in article PMC6172212, “Structural Analysis of Inhibitor Binding to CAMKK1 Identifies Features Necessary for Design of Specific Inhibitors” (Scientific Reports, 2018).
Where a name gives a salt, the structure may show the parent alone. Read-outs that look alike come from different tables or passages of the source. Blank lines part the entries; values can stand above or below the compound they belong to.

Assays:
[1] = molecular target: T1, CAMKK1 kinase domain (CAMKK1-KD, Gln124-Lys411) (Homo sapiens, UniProt Q8N5S9); experiment: Differential scanning fluorimetry (DSF) screen of a kinase inhibitor library against CAMKK1-KD; assay type: binding
T1 construct: The kinase domain (Gln124 to Lys411) was amplified using the primers; 6xHis (TEV-cleavable) (N, cleaved yes); made in house; host or cells: Escherichia coli BL21(DE3)-R3 co-expressing λ-phosphatase
Procedure: DSF measurements were made in a 384-well plate.
The compounds, previously solubilized in DMSO, were used at 10 µM final concentration and 0.1% DMSO. Plates were sealed using optically clear films and transferred to a QuantStudio 6 qPCR instrument (Applied Biosystems). […] Protein in 0.1% DMSO was used as a reference.

CAMKK2 = test system: CAMKK2; set-up: concentration or dose not given beside the values; conditions: supplement; ref Anastassiadis et al. (2011); cited from earlier work
CAMKK1 = test system: CAMKK1; set-up: concentration or dose not given beside the values; conditions: supplement; ref Anastassiadis et al. (2011); cited from earlier work
[2] = molecular target: T2, full length CAMKK1 (CAMKK1-FL) (Homo sapiens, UniProt Q8N5S9); experiment: IC50 determination by TR-FRET enzymatic assay with CAMKK1-FL in the presence of Ca2+/calmodulin; assay type: biochemical
T2 construct: made in house; host or cells: Spodoptera frugiperda Sf9 insect cells (baculovirus)
Procedure: Final assay concentrations of the components of the enzyme mix were 5 nM CAMKK1-FL, 1 µM calmodulin, 1 mM CaCl2, 5 mM MgCl2, 1 mM DTT. Final concentrations of ATP and peptide were 100 µM ATP, 1 µM peptide (STK substrate S1). The inhibitor solutions were prepared starting from 10 mM solutions in DMSO, diluted in enzymatic assay buffer to 200 or 100 µM, and then a 2x serial dilution in enzymatic assay buffer was performed, yielding the serially diluted inhibitors at 2.5x final concentration. […] For detection, 5 µL of streptavidin-XL665, and 5 µL of antibody-Eu-cryptate were added. […] Data was analysed in GraphPad PRISM version 7.

[3] = molecular target: T3, CAMKK1 kinase domain (CAMKK1-KD) (Homo sapiens, UniProt Q8N5S9); experiment: Isothermal titration calorimetry (ITC) with CAMKK1-KD; assay type: binding; conditions: for ΔH: ITC at 20 °C, binding enthalpy
T3 construct: The kinase domain (Gln124 to Lys411) was amplified using the primers; 6xHis (TEV-cleavable) (N, cleaved yes); made in house; host or cells: Escherichia coli BL21(DE3)-R3 co-expressing λ-phosphatase
Procedure: Measurements were made using a MicroCal AutoiITC200 (Malvern, United Kingdom), at 20 °C with 1000 rpm stirring. For all measurements CAMKK1-KD protein was dialysed overnight against gel filtration buffer, and the dialysis buffer was used to dilute the inhibitors. CAMKK1-KD protein was titrated into a solution containing the inhibitor. […] ITC data was analysed with NITPIC, and SEDPHAT; figures were made using GUSSI[30].

[4] = DSF, 1 μM CAMKK1-KD, compound 10 µM, mean and standard error from triplicate measurements, read-out: ΔTm (°C) CAMKK1
[5] = DSF, CAMKK1-KD, compound 10 µM, repeated in Table 3, read-out: ΔTm (°C)
[6] = DSF, 1 μM CAMKK1-KD, compound 10 µM, supplement, read-out: Mean ΔTm (°C)
[7] = DSF, 1 μM CAMKK1-KD, compound 10 µM, supplement

T1 sequence (Q8N5S9 124-411): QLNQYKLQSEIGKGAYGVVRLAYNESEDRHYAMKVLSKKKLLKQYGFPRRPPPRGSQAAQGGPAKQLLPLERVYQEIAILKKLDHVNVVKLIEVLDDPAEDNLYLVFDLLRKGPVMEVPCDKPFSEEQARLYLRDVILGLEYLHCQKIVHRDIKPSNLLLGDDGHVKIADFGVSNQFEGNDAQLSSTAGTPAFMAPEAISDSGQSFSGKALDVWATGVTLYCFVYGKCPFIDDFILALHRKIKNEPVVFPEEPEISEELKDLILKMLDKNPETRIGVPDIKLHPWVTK
T3 sequence (Q8N5S9 124-411): as above

Compound: CNC(=O)c1cc(Oc2ccc(NC(=O)Nc3ccc(Cl)c(C(F)(F)F)c3)cc2)ccn1 [Sorafenib]
ΔTm at 10 µM ([1]; read-out: Mean ΔTm (°C)): 2.5 °C | Remaining activity (%) from Anastassiadis et al. (2011) CAMKK2 (CAMKK2): 103% | Remaining activity (%) from Anastassiadis et al. (2011) CAMKK1 (CAMKK1): 103%

Compound: COc1cc2c(Nc3ccc(Br)cc3F)ncnc2cc1OCC1CCN(C)CC1 [Vandetanib (ZD6474), Vandetanib]
Remaining activity (%) from Anastassiadis et al. (2011) CAMKK2 (CAMKK2): 102% | Remaining activity (%) from Anastassiadis et al. (2011) CAMKK1 (CAMKK1): 90%

Compound: Cc1ccc(Nc2nccc(N(C)c3ccc4c(C)n(C)nc4c3)n2)cc1S(N)(=O)=O [Pazopanib]
Remaining activity (%) from Anastassiadis et al. (2011) CAMKK2 (CAMKK2): 98% | Remaining activity (%) from Anastassiadis et al. (2011) CAMKK1 (CAMKK1): 72%

Compound: CC1(COc2ccc3c(c2)ncn3-c2ccc3cccc(N4CCC(N)CC4)c3n2)COC1 [Crenolanib (CP-868596), Crenolanib]
IC50 [2]: 153 nM | ΔTm at 10 µM [1, 4]: 13.6 ± 0.6 °C | ΔTm at 10 µM [1, 5]: 13.6 ± 0.6 °C | Kd [3]: 4 nM | ΔH [3]: -10.9 kcal/mol

Compound: CCN(CC)CCNC(=O)c1c(C)[nH]c(/C=C2\C(=O)Nc3ccc(F)cc32)c1C [Sunitinib Malate]
Remaining activity (%) from Anastassiadis et al. (2011) CAMKK2 (CAMKK2): 65% | Remaining activity (%) from Anastassiadis et al. (2011) CAMKK1 (CAMKK1): 52%

Compound: COc1cc(N2CCC(N3CCN(C)CC3)CC2)ccc1Nc1ncc(Cl)c(Nc2ccccc2P(C)(C)=O)n1 [AP26113]
IC50 [2]: 89 nM | ΔTm at 10 µM [1, 4]: 8.2 ± 0.6 °C | ΔTm at 10 µM [1, 5]: 8.2 ± 0.6 °C | Kd [3]: 45 nM | ΔH [3]: -9.11 kcal/mol

Compound: CN1CCN(c2ccc3nc(-c4c(N)c5c(F)cccc5[nH]c4=O)[nH]c3c2)CC1 [Dovitinib (TKI-258) Dilactic Acid, Dovitinib]
ΔTm at 10 µM [1, 6]: 5.7 °C | Remaining activity (%) from Anastassiadis et al. (2011) CAMKK2 (CAMKK2): 86% | Remaining activity (%) from Anastassiadis et al. (2011) CAMKK1 (CAMKK1): 49%

Compound: CCS(=O)(=O)Nc1ccc2c(c1)/C(=C(/Nc1ccc(CN3CCCCC3)cc1)c1ccccc1)C(=O)N2 [Hesperadin]
IC50 [2]: 107 nM | ΔTm at 10 µM [1, 4]: 7 ± 0.8 °C | ΔTm at 10 µM [1, 5]: 7 ± 0.8 °C | Kd [3]: 26 nM | ΔH [3]: -14.1 kcal/mol

Compound: CN(C)CCCn1cc(C2=C(c3c[nH]c4ccccc34)C(=O)NC2=O)c2ccccc21 [GF109203X]
Mean ΔTm (°C) [1, 7]: 2.4 °C

Compound: CN1CCN(C2CCN(C(=O)Nc3cc(Oc4ccc(NC(=O)C5(C(=O)Nc6ccc(F)cc6)CC5)c(F)c4)ccn3)CC2)CC1 [Golvatinib (E7050), Golvatinib]
ΔTm at 10 µM [1, 6]: 5.5 °C

Compound: Cc1cc(Nc2cc(N3CCN(C)CC3)nc(Sc3ccc(NC(=O)C4CC4)cc3)n2)[nH]n1 [VX-680 (Tozasertib), Tozasertib]
ΔTm at 10 µM [1, 6]: 3.4 °C | Remaining activity (%) from Anastassiadis et al. (2011) CAMKK1 (CAMKK1): 86%

Compound: O=C(Nc1cccc(Cl)c1)Nc1ncc(CCNc2ncnc3ccsc23)s1 [SNS-314 Mesylate]
ΔTm at 10 µM ([1]; read-out: Mean ΔTm (°C)): 4.5 °C

The remaining lines, values ahead:

ΔTm at 10 µM [1, 4]: 16.1 ± 0.8 °C | ΔTm at 10 µM [1, 5]: 16.1 ± 0.8 °C | ΔH [3]: -20.5 kcal/mol
Compound: O=C(O)c1ccc(-c2c[nH]c3ncc(-c4ccccc4)cc23)cc1C1CCCC1 [GSK650394]

IC50 [2]: 101 nM | ΔTm at 10 µM [1, 4]: 14.4 ± 0.9 °C | ΔTm at 10 µM [1, 5]: 14.4 ± 0.9 °C | Kd [3]: 7 nM
Compound: COCCOc1ccc2c(c1)ncn2-c1ccc2cccc(N3CCC(N)CC3)c2n1 [CP-673451]

Mean ΔTm (°C) [1, 7]: 2.7 °C
Compound: O=C1NC(=O)C(c2ccccc2[N+](=O)[O-])=C1Nc1ccc(O)c(Cl)c1 [SB415286]

ΔTm at 10 µM [1, 6]: 5.6 °C
Compound: O=C(NCCCNc1nc(Nc2cccc(NC(=O)N3CCCC3)c2)ncc1I)c1cccs1 [BX-795]
